# Test results reported in ChEMBL document CHEMBL4507296 (2021).
# How the values were obtained:
# [1] = target: Dual specificity protein kinase CLK4 (Homo sapiens) (UniProt Q9HAZ1); details: Compound concentration 1000.0 nM
# [2] = target: D(4) dopamine receptor (Homo sapiens) (UniProt P21917); details: Compound concentration 10.0 uM
# [3] = target: Cyclin-G-associated kinase (Homo sapiens) (UniProt O14976); details: Compound concentration 1000.0 nM
# [4] = target: Bone morphogenetic protein receptor type-2 (Homo sapiens) (UniProt Q13873); details: Compound concentration 1000.0 nM
# [5] = test system: Phosphatidylinositol 4,5-bisphosphate 3-kinase catalytic subunit alpha isoform (Homo sapiens), P42336 [E542K]; details: Compound concentration 1000.0 nM
# Chain of Phosphatidylinositol 4,5-bisphosphate 3-kinase catalytic subunit alpha isoform (Homo sapiens), P42336 [E542K] (P42336 whole entry E542K, canonical isoform): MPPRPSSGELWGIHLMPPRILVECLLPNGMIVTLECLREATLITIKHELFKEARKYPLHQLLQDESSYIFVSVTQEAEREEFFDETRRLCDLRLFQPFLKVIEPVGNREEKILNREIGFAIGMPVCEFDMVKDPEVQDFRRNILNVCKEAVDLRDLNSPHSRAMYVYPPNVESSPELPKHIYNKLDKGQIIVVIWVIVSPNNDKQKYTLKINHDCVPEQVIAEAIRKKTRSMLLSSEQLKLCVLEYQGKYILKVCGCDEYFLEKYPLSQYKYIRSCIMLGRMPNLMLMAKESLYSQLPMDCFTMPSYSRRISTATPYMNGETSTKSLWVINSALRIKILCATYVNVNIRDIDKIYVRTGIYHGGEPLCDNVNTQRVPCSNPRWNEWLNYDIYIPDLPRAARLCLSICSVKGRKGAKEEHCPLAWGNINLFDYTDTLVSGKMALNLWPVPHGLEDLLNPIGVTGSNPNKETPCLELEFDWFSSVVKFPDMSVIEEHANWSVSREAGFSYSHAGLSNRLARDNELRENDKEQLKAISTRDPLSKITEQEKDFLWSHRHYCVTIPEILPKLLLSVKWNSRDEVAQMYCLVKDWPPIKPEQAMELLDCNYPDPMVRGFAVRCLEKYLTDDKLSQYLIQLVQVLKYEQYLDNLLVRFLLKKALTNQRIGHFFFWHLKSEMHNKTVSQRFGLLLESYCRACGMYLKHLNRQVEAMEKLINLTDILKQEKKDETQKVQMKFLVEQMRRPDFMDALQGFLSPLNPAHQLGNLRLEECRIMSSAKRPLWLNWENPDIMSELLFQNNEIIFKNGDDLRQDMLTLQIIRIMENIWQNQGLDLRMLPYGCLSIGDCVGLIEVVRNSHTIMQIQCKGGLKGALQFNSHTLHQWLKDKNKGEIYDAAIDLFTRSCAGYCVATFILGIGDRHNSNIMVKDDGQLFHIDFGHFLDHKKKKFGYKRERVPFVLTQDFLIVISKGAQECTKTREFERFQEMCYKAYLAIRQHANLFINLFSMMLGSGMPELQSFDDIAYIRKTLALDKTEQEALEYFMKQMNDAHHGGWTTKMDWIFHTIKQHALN
# [6] = target: Tyrosine-protein kinase Fyn (Homo sapiens) (UniProt P06241); details: Compound concentration 1000.0 nM
# Chain of Tyrosine-protein kinase Fyn (Homo sapiens) (P06241 2-537 limits assumed): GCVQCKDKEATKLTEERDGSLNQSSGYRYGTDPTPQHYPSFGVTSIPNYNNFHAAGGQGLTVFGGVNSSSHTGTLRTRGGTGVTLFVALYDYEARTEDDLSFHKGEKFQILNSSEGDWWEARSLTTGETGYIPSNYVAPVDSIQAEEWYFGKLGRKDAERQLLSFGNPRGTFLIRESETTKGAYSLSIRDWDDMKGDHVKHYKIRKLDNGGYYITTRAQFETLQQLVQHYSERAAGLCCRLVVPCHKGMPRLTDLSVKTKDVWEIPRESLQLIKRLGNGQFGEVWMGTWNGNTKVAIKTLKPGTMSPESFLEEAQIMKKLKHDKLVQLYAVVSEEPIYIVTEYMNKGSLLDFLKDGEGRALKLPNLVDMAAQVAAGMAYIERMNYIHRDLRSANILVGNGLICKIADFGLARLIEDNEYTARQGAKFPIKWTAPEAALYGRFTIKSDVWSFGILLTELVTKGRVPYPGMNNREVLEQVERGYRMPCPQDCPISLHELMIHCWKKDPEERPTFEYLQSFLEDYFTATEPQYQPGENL
# [7] = target: Mitogen-activated protein kinase kinase kinase 20 (Homo sapiens) (UniProt Q9NYL2); details: Compound concentration 1000.0 nM
# [8] = target: Dual specificity tyrosine-phosphorylation-regulated kinase 1B (Homo sapiens) (UniProt Q9Y463); details: Compound concentration 1000.0 nM
# [9] = target: Ephrin type-A receptor 2 (Homo sapiens) (UniProt P29317); details: Compound concentration 1000.0 nM
# [10] = target: Ephrin type-B receptor 6 (Homo sapiens) (UniProt O15197); details: Compound concentration 1000.0 nM
# [11] = target: G protein-coupled receptor kinase 4 (Homo sapiens) (UniProt P32298); details: Compound concentration 1000.0 nM
# Chain of G protein-coupled receptor kinase 4 (Homo sapiens) (P32298 whole entry, looked up): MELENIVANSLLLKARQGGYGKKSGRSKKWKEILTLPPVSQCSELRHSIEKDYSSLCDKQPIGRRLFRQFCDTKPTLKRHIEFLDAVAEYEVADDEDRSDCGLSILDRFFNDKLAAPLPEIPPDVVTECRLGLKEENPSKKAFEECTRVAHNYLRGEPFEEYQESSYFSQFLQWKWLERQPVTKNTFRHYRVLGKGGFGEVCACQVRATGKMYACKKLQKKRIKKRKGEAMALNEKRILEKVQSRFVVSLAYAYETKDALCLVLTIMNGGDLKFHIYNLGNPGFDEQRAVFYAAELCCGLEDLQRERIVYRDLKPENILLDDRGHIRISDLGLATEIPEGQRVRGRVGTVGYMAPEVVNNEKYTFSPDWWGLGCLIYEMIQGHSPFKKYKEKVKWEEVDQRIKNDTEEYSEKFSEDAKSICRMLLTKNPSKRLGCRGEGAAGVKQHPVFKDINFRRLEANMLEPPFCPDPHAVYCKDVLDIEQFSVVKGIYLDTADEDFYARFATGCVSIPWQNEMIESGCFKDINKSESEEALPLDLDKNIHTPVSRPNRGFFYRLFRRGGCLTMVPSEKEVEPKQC
# [12] = target: Serine/threonine-protein kinase Nek9 (Homo sapiens) (UniProt Q8TD19); details: Compound concentration 1000.0 nM
# [13] = target: Phosphatidylinositol 5-phosphate 4-kinase type-2 gamma (Homo sapiens) (UniProt Q8TBX8); details: Compound concentration 1000.0 nM
# Chain of Phosphatidylinositol 5-phosphate 4-kinase type-2 gamma (Homo sapiens) (Q8TBX8 whole entry): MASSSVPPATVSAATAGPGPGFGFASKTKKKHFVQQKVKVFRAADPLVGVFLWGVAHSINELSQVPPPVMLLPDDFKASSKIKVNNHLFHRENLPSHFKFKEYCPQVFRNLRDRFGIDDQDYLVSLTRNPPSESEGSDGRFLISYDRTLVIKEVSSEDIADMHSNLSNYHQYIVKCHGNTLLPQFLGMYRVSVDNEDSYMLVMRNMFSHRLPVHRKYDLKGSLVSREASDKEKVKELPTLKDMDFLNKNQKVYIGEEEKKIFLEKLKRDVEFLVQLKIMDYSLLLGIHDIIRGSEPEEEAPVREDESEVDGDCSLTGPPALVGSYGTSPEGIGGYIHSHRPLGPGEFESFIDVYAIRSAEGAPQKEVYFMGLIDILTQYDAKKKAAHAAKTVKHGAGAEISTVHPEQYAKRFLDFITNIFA
# [14] = target: Serine/threonine-protein kinase WNK3 (Homo sapiens) (UniProt Q9BYP7); details: Compound concentration 1000.0 nM
# [15] = target: Dual serine/threonine and tyrosine protein kinase (Homo sapiens) (UniProt Q6XUX3); details: Compound concentration 1000.0 nM
# [16] = target: Serine/threonine-protein kinase Chk1 (Homo sapiens) (UniProt O14757); details: Compound concentration 1000.0 nM
# [17] = target: Serine/threonine-protein kinase DCLK3 (Homo sapiens) (UniProt Q9C098); details: Compound concentration 1000.0 nM
# [18] = target: Platelet-derived growth factor receptor alpha (Homo sapiens) (UniProt P16234); details: Compound concentration 1000.0 nM
# [19] = target: Phosphatidylinositol 4,5-bisphosphate 3-kinase catalytic subunit gamma isoform (Homo sapiens) (UniProt P48736); details: Compound concentration 1000.0 nM
# [20] = target: Epithelial discoidin domain-containing receptor 1 (Homo sapiens) (UniProt Q08345); details: Compound concentration 1000.0 nM
# [21] = target: Atypical kinase COQ8A, mitochondrial (Homo sapiens) (UniProt Q8NI60); details: Compound concentration 1000.0 nM
# [22] = test system: Proto-oncogene tyrosine-protein kinase receptor Ret (Homo sapiens), P07949 [V804M]; details: Compound concentration 1000.0 nM
# [23] = target: Receptor tyrosine-protein kinase erbB-2 (Homo sapiens) (UniProt P04626); details: Compound concentration 1000.0 nM
# [24] = target: Serine/threonine-protein kinase tousled-like 2 (Homo sapiens) (UniProt Q86UE8); details: Compound concentration 1000.0 nM
# [25] = test system: Mast/stem cell growth factor receptor Kit (Homo sapiens), P10721 [D816V]; details: Compound concentration 1000.0 nM
# Chain of Mast/stem cell growth factor receptor Kit (Homo sapiens), P10721 [D816V] (P10721 whole entry D816V): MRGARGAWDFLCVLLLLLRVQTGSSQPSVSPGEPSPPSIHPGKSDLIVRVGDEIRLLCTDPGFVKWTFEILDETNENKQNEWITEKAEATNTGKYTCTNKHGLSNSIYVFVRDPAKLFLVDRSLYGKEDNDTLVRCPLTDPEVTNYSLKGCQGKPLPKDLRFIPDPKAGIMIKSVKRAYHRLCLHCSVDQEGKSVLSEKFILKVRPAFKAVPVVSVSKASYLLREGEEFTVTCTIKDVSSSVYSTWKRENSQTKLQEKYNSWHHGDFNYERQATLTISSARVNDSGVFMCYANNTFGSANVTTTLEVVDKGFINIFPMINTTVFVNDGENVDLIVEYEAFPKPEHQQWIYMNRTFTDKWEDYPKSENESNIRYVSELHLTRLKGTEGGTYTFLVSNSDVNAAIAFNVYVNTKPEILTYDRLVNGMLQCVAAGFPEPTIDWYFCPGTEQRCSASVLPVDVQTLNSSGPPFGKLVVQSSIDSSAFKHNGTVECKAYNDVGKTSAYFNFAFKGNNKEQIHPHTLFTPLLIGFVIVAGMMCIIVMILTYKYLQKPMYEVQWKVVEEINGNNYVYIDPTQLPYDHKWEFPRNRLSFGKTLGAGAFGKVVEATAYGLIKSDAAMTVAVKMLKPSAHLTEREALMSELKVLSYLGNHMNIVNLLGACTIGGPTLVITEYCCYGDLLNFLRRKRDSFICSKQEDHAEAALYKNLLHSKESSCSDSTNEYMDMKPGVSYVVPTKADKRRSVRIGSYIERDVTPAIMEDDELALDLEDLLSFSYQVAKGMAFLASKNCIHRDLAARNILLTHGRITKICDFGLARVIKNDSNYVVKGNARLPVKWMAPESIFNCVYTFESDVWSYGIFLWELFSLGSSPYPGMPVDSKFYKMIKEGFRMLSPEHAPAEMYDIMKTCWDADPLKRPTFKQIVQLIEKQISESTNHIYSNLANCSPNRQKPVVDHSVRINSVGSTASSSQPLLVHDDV
# [26] = target: Serine/threonine-protein kinase RIO2 (Homo sapiens) (UniProt Q9BVS4); details: Compound concentration 1000.0 nM
# [27] = target: High affinity nerve growth factor receptor (Homo sapiens) (UniProt P04629); details: Compound concentration 1000.0 nM
# [28] = target: Serine/threonine-protein kinase pim-3 (Homo sapiens) (UniProt Q86V86); details: Compound concentration 1000.0 nM
# [29] = target: Ribosomal protein S6 kinase alpha-6 (Homo sapiens) (UniProt Q9UK32); details: Compound concentration 1000.0 nM
# [30] = target: Glycogen synthase kinase-3 alpha (Homo sapiens) (UniProt P49840); details: Compound concentration 1000.0 nM
# [31] = target: Serine/threonine-protein kinase PknB (Mycobacterium tuberculosis) (UniProt P9WI81); details: Compound concentration 1000.0 nM
# [32] = target: Serine/threonine-protein kinase MAK (Homo sapiens) (UniProt P20794); details: Compound concentration 1000.0 nM
# [33] = target: Insulin receptor-related protein (Homo sapiens) (UniProt P14616); details: Compound concentration 1000.0 nM
# [34] = target: Serine/threonine-protein kinase SIK2 (Homo sapiens) (UniProt Q9H0K1); details: Compound concentration 1000.0 nM
# Chain of Serine/threonine-protein kinase SIK2 (Homo sapiens) (Q9H0K1 whole entry, looked up): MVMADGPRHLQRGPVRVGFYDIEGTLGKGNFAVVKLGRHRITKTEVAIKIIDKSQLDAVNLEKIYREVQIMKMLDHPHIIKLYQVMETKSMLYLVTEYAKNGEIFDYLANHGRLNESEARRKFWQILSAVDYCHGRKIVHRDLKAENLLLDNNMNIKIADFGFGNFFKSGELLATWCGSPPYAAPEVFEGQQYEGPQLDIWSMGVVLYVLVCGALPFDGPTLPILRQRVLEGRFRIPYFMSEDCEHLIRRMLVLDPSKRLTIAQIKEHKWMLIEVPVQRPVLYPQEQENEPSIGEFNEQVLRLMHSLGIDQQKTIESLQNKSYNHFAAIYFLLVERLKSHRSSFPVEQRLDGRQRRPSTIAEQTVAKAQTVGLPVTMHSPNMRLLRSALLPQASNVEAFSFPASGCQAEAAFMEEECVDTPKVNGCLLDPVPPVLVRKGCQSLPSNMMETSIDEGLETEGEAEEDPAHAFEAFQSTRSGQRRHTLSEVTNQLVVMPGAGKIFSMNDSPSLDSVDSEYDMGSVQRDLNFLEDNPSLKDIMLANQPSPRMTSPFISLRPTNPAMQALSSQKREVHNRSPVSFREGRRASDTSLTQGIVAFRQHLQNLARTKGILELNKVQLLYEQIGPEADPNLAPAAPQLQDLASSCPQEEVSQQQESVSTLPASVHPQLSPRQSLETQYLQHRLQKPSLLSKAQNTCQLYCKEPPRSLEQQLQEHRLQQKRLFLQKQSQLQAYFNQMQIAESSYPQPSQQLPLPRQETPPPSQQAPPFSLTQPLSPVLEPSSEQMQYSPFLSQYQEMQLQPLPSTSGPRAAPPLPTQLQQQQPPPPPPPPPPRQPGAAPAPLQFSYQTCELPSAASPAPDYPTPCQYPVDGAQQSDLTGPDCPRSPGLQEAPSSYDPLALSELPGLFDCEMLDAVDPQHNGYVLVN
# [35] = target: Tyrosine-protein kinase Yes (Homo sapiens) (UniProt P07947); details: Compound concentration 1000.0 nM
# [36] = target: 5-hydroxytryptamine receptor 1D (Homo sapiens) (UniProt P28221); details: Compound concentration 10.0 uM
# [37] = target: Alpha-1B adrenergic receptor (Homo sapiens) (UniProt P35368); details: Compound concentration 10.0 uM
# [38] = target: High affinity choline transporter 1 (Homo sapiens) (UniProt Q9GZV3); test: Choline transporter 1 (human) CEREP ligand profiling; details: Compound concentration 10.0 uM
# [39] = target: Serine/threonine-protein kinase mTOR (Homo sapiens) (UniProt P42345); details: Compound concentration 1000.0 nM
# [40] = target: Serine/threonine-protein kinase ULK2 (Homo sapiens) (UniProt Q8IYT8); details: Compound concentration 1000.0 nM
# [41] = target: Epidermal growth factor receptor (Homo sapiens) (UniProt P00533); details: Compound concentration 1000.0 nM
# [42] = target: Vascular endothelial growth factor receptor 3 (Homo sapiens) (UniProt P35916); details: Compound concentration 1000.0 nM
# [43] = target: Cytoplasmic tyrosine-protein kinase BMX (Homo sapiens) (UniProt P51813); details: Compound concentration 1000.0 nM
# [44] = target: Serine/threonine-protein kinase STK11 (Homo sapiens) (UniProt Q15831); details: Compound concentration 1000.0 nM
# [45] = target: Proto-oncogene tyrosine-protein kinase Src (Homo sapiens) (UniProt P12931); details: Compound concentration 1000.0 nM
smiles,measurement,setting,value
C[C@H](c1ccc(F)cc1)N(Cc1cccc(C(=O)O)c1)C(=O)c1cnc2ccccc2c1 [PF-05105679],residual activity,[1],66%
same,inhibition,[2],10.1%
same,residual activity,[3],98%
same,residual activity,[4],75%
same,residual activity,[5],49%
same,residual activity,[6],63%
same,residual activity,[7],100%
same,residual activity,[8],100%
same,residual activity,[9],100%
same,residual activity,[10],88%
same,residual activity,[11],100%
same,residual activity,[12],100%
same,residual activity,[13],81%
same,residual activity,[14],87%
same,residual activity,[15],100%
same,residual activity,[16],100%
same,residual activity,[17],100%
same,residual activity,[18],100%
same,residual activity,[19],100%
same,residual activity,[20],100%
same,residual activity,[21],85%
same,residual activity,[22],100%
same,residual activity,[23],100%
same,residual activity,[24],97%
same,residual activity,[25],100%
same,residual activity,[26],80%
same,residual activity,[27],100%
same,residual activity,[28],100%
same,residual activity,[29],100%
same,residual activity,[30],100%
same,residual activity,[31],94%
same,residual activity,[32],100%
same,residual activity,[33],84%
same,residual activity,[34],96%
same,residual activity,[35],100%
same,inhibition,[36],-1.68%
same,inhibition,[37],-0.5%
same,inhibition,[38],22%
same,residual activity,[39],93%
same,residual activity,[40],81%
same,residual activity,[41],100%
same,residual activity,[42],95%
same,residual activity,[43],99%
same,residual activity,[44],100%
same,residual activity,[45],100%
